The text below walks through data of paper PMC11191095, “QSAR Reveals Decreased Lipophilicity of Polar Residues Determines the Selectivity of Antimicrobial Peptide Activity” (ACS Omega, 2024).

The subject of one series is P. aeruginosa NCTC 13437. Nature of the series: microbe, parasite or virus in culture. The series is classed as cell-based, Pseudomonas aeruginosa. To be noted: P. aeruginosa NCTC 13437 (R). A digest of the protocol:
(§1)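 Peptides 128→2 μg/mL, 2-fold series; inoculum ~5 × 10^5 CFU/mL from overnight culture (OD600 0.01, mixed 1:1). MHB non-cation-adjusted for bacteria, RPMI 1640 + 2% glucose for fungi. 37 °C, 20 h, OD600. MIC50/MIC90 at 50%/90% inhibition; n ≥ 3.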

The subject of the next series is P. aeruginosa PAO1. Nature of the series: microbe, parasite or virus in culture. As to conditions: P. aeruginosa PAO1 (S). The format is cell-based, Pseudomonas aeruginosa. A digest of the protocol:
as §1

The nature of series [1]: RP-HPLC ElutionTime as indicator of hydrophobicity. The series is classed as physicochemical. To be noted: indicator of overall hydrophobicity; semipreparative RP-HPLC, Waters SymmetryPrep C8, water/ACN gradient with 0.1% TFA, 8 mL/min, 25 °C, 254 nm. The method, then: Crude peptides, made up to 10 mg/mL in 0.1% TFA (v/v) in ddH2O, were subjected to preparative RP-HPLC purification on an Agilent 1100 system, with elution in gradient. A gradient program at a flow rate of 8 mL/min and column temperature of 25 °C was used to achieve elution with solvent A (0.1% trifluoroacetic acid (TFA) in water (v/v)) and solvent B (0.1% TFA in 100% acetonitrile (ACN) (v/v)). The elution program was as follows: (1) At 0–73 min, 100% solvent A to 0% solvent B; (2) at 73–77 min, 40% solvent A to 60% solvent B; (3) at 77–93 min, 10% solvent A to 90% solvent B; (4) at 93–105 min, 100% solvent A to 0% solvent B. Data collected were the retention time of the major fraction for each peptide in minutes as RP-HPLC ElutionTime (ElutionTime). Absorbance was detected at 254 nm, and fractions were collected manually. The fractions collected were spun in a speed-vac to remove ACN and the contents lyophilized. After freeze-drying for 24 h the peptides were dissolved in 10% (v/v) acetic acid before being lyophilized for a second time and then stored at −20 °C.
Molecular descriptors used in the QSAR analysis included: charge, sequence length, overall lipophilicity (L), lipophilicity contributed by the polar or nonpolar residues (LP and LN), summation of the side chain surface areas of the total peptide, polar or nonpolar residues (SCSA, SCSAP, and SCSAN), the molecular weight of the entire peptide, polar or nonpolar residues (Mw, MwP, and MwN), count of small lipophilic residues (CSL) or aromatic residues (CAR), the total number of hydrogen bond donor and acceptor centers (HBtot, HBdon, and HBacc), the total number of rotatable bonds (#RotBonds) and various amphipathicity descriptors (LP/L, LP/LN, L/LN, Q/L, Q/LN, SCSAP/SCSAN, MwP/MwN, Q/CSL, and Q/CAR) (Suppl. Table S1). Experimentally determined characteristics included ElutionTime as an indicator of overall peptide hydrophobicity and the CD structure of each peptide determined in POPG/POPE lipids representing Gram-negative membranes, POPG lipids for Gram-positive membranes, and SDS micelles for fungal membranes. AMPs with an α-helical structure were labeled 4, β-sheets were labeled 3, β-turns and mixed conformations were labeled 2, and disordered structures were labeled 1.

For the next series, the system named is HaCat cell line. Kind of series: In vitro HaCat cytotoxicity (MTT). The series is classed as cell-based, human. To be noted: 21 h exposure, OD570, relative to untreated control. Put shortly:
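HaCat keratinocytes were first screened with peptide at 256 μg/mL for 21 h at 37 °C, and a dose-response was run only when cytotoxicity reached p < 0.0001. Viability was read by MTT (3 h, OD570) relative to untreated control, and LC50 was taken from the dose-response curves.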

The mark [2] stands for this setting: MHB, 37 °C, 20 h, OD600, min. three biological repeats.

Where a SMILES comes first, the peptide text is derived from it.

As for `CC[C@H](C)[C@H](NC(=O)[C@H](CCCCN)NC(=O)[C@H](CC(C)C)NC(=O)[C@H](C)NC(=O)[C@H](C)NC(=O)[C@H](CCCCN)NC(=O)[C@H](CC(C)C)NC(=O)[C@H](C)NC(=O)[C@@H](N)CCCCN)C(=O)NCC(N)=O` [CPF-P3-10a] (H-KALKAALKIG-NH2), the “Modal MIC” value in the series with P. aeruginosa NCTC 13437 (setting [2]) is over 128 µg/mL; in the series on P. aeruginosa NCTC 13437 (shown in µM), over 122 µM; in the series with P. aeruginosa PAO1 (setting [2]), over 128 µg/mL; in the series on P. aeruginosa PAO1 (shown in µM), over 122 µM.

As to `CC[C@H](C)[C@H](NC(=O)[C@H](CCCCN)NC(=O)[C@H](CC(C)C)NC(=O)[C@H](C)NC(=O)[C@H](C)NC(=O)[C@H](CCCCN)NC(=O)[C@H](CC(C)C)NC(=O)[C@H](C)NC(=O)[C@@H](N)CCCCN)C(=O)NCC(=O)N[C@@H](C)C(=O)N[C@@H](CC(N)=O)C(N)=O` [CPF-P3-12a] (H-KALKAALKIGAN-NH2), the “Modal MIC” value in the series on P. aeruginosa NCTC 13437 (setting [2]) is recorded as over 128 µg/mL; in the series with P. aeruginosa NCTC 13437 (shown in µM) it was over 103.8 µM; with P. aeruginosa PAO1 (setting [2]), over 128 µg/mL; in the series with P. aeruginosa PAO1 (shown in µM), over 103.8 µM.

Turning to `CC[C@H](C)[C@H](NC(=O)CNC(=O)[C@@H](N)CCCNC(=N)N)C(=O)N[C@@H](CCCNC(=N)N)C(=O)NCC(=O)N[C@@H](Cc1ccc(O)cc1)C(=O)N[C@@H](CCCCN)C(=O)NCC(=O)NCC(=O)N[C@@H](Cc1ccc(O)cc1)C(=O)N[C@@H](CS)C(=O)N[C@H](C(=O)NCC(=O)N[C@@H](CCCNC(=N)N)C(=O)N[C@@H](Cc1ccccc1)C(=O)N[C@@H](CCCCN)C(=O)N[C@@H](CCC(N)=O)C(=O)N[C@H](C(=O)N[C@@H](CS)C(=O)N[C@@H](CCCCN)C(=O)N[C@@H](CS)C(=O)N[C@@H](Cc1ccc(O)cc1)C(=O)O)[C@@H](C)O)[C@@H](C)O` [OmDefB] (H-RGIRGYKGGYCTGRFKQTCKCY-OH; N-terminus and C-terminus assumed), the “Modal MIC” value is reported as over 128 µg/mL in the series with P. aeruginosa NCTC 13437 (setting [2]), over 49.9 µM in the series on P. aeruginosa NCTC 13437 (shown in µM), over 128 µg/mL in the series with P. aeruginosa PAO1 (setting [2]) and over 49.9 µM with P. aeruginosa PAO1 (shown in µM). Further, in series [1], the “ElutionTime (RP-HPLC retention time of major fraction)” value is 25 min.

Turning to `CC[C@H](C)[C@H](NC(=O)[C@@H](N)Cc1c[nH]c2ccccc12)C(=O)N[C@@H](CCCCN)C(=O)N[C@@H](CO)C(=O)N[C@H](C(=O)N[C@@H](C)C(=O)N[C@@H](CCCCN)C(=O)N[C@@H](CCCCN)C(N)=O)[C@@H](C)O` [Opis8a] (H-WIKSTAKK-NH2), the “Modal MIC” value is over 128 µg/mL in the series on P. aeruginosa NCTC 13437 (setting [2]), over 133.2 µM with P. aeruginosa NCTC 13437 (shown in µM), over 128 µg/mL in the series with P. aeruginosa PAO1 (setting [2]) and over 133.2 µM in the series on P. aeruginosa PAO1 (shown in µM).

As to `CC[C@H](C)[C@H](N)C(=O)N[C@@H](CCCNC(=N)N)C(=O)NCC(=O)N[C@@H](Cc1ccc(O)cc1)C(=O)N[C@@H](CCCCN)C(=O)NCC(=O)NCC(=O)N[C@@H](Cc1ccc(O)cc1)C(=O)N[C@@H](CS)C(=O)N[C@@H](CCCCN)C(N)=O` [Os(3-12)a] (H-IRGYKGGYCK-NH2), the “Modal MIC” value with P. aeruginosa NCTC 13437 (setting [2]) is over 128 µg/mL; in the series with P. aeruginosa NCTC 13437 (shown in µM), over 112 µM; in the series with P. aeruginosa PAO1 (setting [2]) it was over 128 µg/mL; with P. aeruginosa PAO1 (shown in µM), over 112 µM.

For `C[C@H](NC(=O)CNC(=O)[C@H](CCCCN)NC(=O)[C@@H](N)CS)C(=O)N[C@@H](Cc1ccccc1)C(=O)N[C@@H](CCCCN)C(=O)N[C@@H](CCC(N)=O)C(=O)N[C@H](C(=O)N[C@@H](CS)C(=O)N[C@@H](CCCCN)C(=O)N[C@@H](CS)C(=O)N[C@@H](Cc1ccc(O)cc1)C(N)=O)[C@@H](C)O` [Os(11-22)a] (H-CKGAFKQTCKCY-NH2; N-terminus assumed), the “Modal MIC” value is reported as over 128 µg/mL in the series on P. aeruginosa NCTC 13437 (setting [2]), over 91.7 µM with P. aeruginosa NCTC 13437 (shown in µM), over 128 µg/mL in the series with P. aeruginosa PAO1 (setting [2]) and over 91.7 µM with P. aeruginosa PAO1 (shown in µM). For the same compound, the “% HaCat cell death at initial screening (256μg/mL) ± SD” value in the series on HaCat cell line stood at 59.5 ±13.9%; with HaCat cell line (listed as Os(11–22)a), 59.5%. Also, the “ElutionTime (RP-HPLC retention time of major fraction)” value in series [1] is on record as 21,3 min.

On to `CC[C@H](C)[C@H](NC(=O)CNC(=O)[C@@H](N)CCCCN)C(=O)N[C@@H](CCCNC(=N)N)C(=O)NCC(=O)N[C@@H](Cc1ccc(O)cc1)C(=O)N[C@@H](CCCCN)C(=O)NCC(=O)NCC(=O)N[C@@H](Cc1ccc(O)cc1)C(=O)N[C@@H](CS)C(=O)N[C@@H](CCCCN)C(=O)NCC(=O)N[C@@H](C)C(=O)N[C@@H](Cc1ccccc1)C(=O)N[C@@H](CCCCN)C(=O)N[C@@H](CCC(N)=O)C(=O)N[C@H](C(=O)N[C@@H](CS)C(=O)N[C@@H](CCCCN)C(=O)N[C@@H](CS)C(=O)N[C@@H](Cc1ccc(O)cc1)C(=O)O)[C@@H](C)O` [Os] (H-KGIRGYKGGYCKGAFKQTCKCY-OH; N-terminus and C-terminus assumed), for which the “Modal MIC” value in the series on P. aeruginosa NCTC 13437 (setting [2]) is over 128 µg/mL; with P. aeruginosa NCTC 13437 (shown in µM), over 51.7 µM; in the series with P. aeruginosa PAO1 (setting [2]) it was over 128 µg/mL; with P. aeruginosa PAO1 (shown in µM), over 51.7 µM. The “ElutionTime (RP-HPLC retention time of major fraction)” value in series [1] is 24,7 min.

For the compound `CC[C@H](C)[C@H](NC(=O)CNC(=O)[C@@H](N)CCCCN)C(=O)N[C@@H](CCCNC(=N)N)C(=O)NCC(=O)N[C@@H](Cc1ccc(O)cc1)C(=O)N[C@@H](CCCCN)C(=O)NCC(=O)NCC(=O)N[C@@H](Cc1ccc(O)cc1)C(=O)N[C@@H](CS)C(=O)N[C@@H](CCCCN)C(=O)NCC(=O)N[C@@H](C)C(=O)N[C@@H](Cc1ccccc1)C(=O)N[C@@H](CCCCN)C(=O)N[C@@H](CCC(N)=O)C(=O)N[C@H](C(=O)N[C@@H](CS)C(=O)N[C@@H](CCCCN)C(=O)N[C@@H](CS)C(=O)N[C@@H](Cc1ccc(O)cc1)C(N)=O)[C@@H](C)O` [Osa] (H-KGIRGYKGGYCKGAFKQTCKCY-NH2; N-terminus assumed), the “Modal MIC” value in the series with P. aeruginosa NCTC 13437 (setting [2]) is over 128 µg/mL; in the series with P. aeruginosa NCTC 13437 (shown in µM), over 51.7 µM; in the series on P. aeruginosa PAO1 (setting [2]), over 128 µg/mL; in the series with P. aeruginosa PAO1 (shown in µM), over 51.7 µM. The “ElutionTime (RP-HPLC retention time of major fraction)” value in series [1] was 24,5 min.

Turning to `CC(C)C[C@H](NC(=O)[C@H](CCCCN)NC(=O)[C@H](CO)NC(=O)[C@H](CCCCN)NC(=O)[C@@H](N)Cc1c[nH]c2ccccc12)C(=O)N[C@@H](C)C(=O)N[C@@H](CCCCN)C(=O)N[C@@H](CCCCN)C(N)=O` [PS-PB-8a] (H-WKSKLAKK-NH2), the “Modal MIC” value is over 128 µg/mL in the series with P. aeruginosa NCTC 13437 (setting [2]), over 127.2 µM in the series on P. aeruginosa NCTC 13437 (shown in µM), over 128 µg/mL in the series with P. aeruginosa PAO1 (setting [2]) and over 127.2 µM with P. aeruginosa PAO1 (shown in µM).

For `CC(C)C[C@H](NC(=O)[C@H](CCCCN)NC(=O)[C@H](CO)NC(=O)[C@H](CCCCN)NC(=O)[C@H](Cc1c[nH]c2ccccc12)NC(=O)[C@H](C)NC(=O)[C@H](CCCCN)NC(=O)[C@@H](N)CCCCN)C(=O)N[C@@H](C)C(=O)N[C@@H](CCCCN)C(=O)N[C@@H](CCCCN)C(=O)N[C@@H](CC(C)C)C(=O)N[C@@H](CCCNC(=N)N)C(=O)N[C@@H](C)C(=O)N[C@@H](CCCCN)C(=O)NCC(=O)N[C@@H](CCCCN)C(N)=O` [PS-PB-14a] (H-KKAWKSKLAKKLRAKGK-NH2), the “Modal MIC” value with P. aeruginosa NCTC 13437 (setting [2]) is listed as over 128 µg/mL; with P. aeruginosa NCTC 13437 (shown in µM), over 63.8 µM; with P. aeruginosa PAO1 (setting [2]), over 128 µg/mL; in the series on P. aeruginosa PAO1 (shown in µM), over 63.8 µM.

Consider “KCLTLRSLKKTLKFCASGRT-NH2 [X1-20a, novel amidated frog AMP derivative, Xenopus laevis]”, for which the “Modal MIC” value is over 128 µg/mL in the series with P. aeruginosa NCTC 13437 (setting [2]), over 55 µM in the series on P. aeruginosa NCTC 13437 (shown in µM), over 128 µg/mL in the series on P. aeruginosa PAO1 (setting [2]) and over 55 µM in the series on P. aeruginosa PAO1 (shown in µM). For the same compound, the “ElutionTime (RP-HPLC retention time of major fraction)” value in series [1] is 31,7 min.
